This is an account of results in US12459951B2, “Compounds that interact with RAS superfamily proteins for treatment of cancers, inflammatory diseases, rasopathies, and fibrotic disease” (SHY Therapeutics, LLC, priority 2022, dated 2025).

Where only a bound is given, the exact number is not on record here.

The test system of series [1] is A375 (wild type Kras). Description: Proliferation Assay (Cell Viability Assay). Type of series: cell-based. As to conditions: Homo sapiens, A-375; Proliferation assay, A375; read-out: A375 IC50 (nM) Melanoma. The procedure, abridged:
(§1)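 Cells plated at 2000–5000/well overnight, then treated 2–4 days at 37 °C, 5% CO2 with compound at 10 μM single dose or serial dilutions for IC50, in 0.3% DMSO and 10% FBS. Viability read by CellTiter 96 Aqueous One (MTS); % proliferation inhibition calculated from raw data.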

The test system of series [2] is BT-549 (expressing wild type KRAS). As to the kind of experiment: Proliferation Assay (Cell Viability Assay). As to conditions: Homo sapiens, BT-549; Proliferation assay, BT549; read-out: BT549 IC50 (nM) TNBC. Type of series: cell-based. In a few lines: as §1
The subject of series [3] is NCI-H358 (expressing KRas G12C mutant). Description: Proliferation Assay (Cell Viability Assay). The class given is cell-based. Conditions: Homo sapiens; Proliferation assay, NCI-H358; read-out: NCI-H358 IC50 (nM) NSCLC. The procedure, abridged:
as §1

Series [4] in a line: Kinetic Solubility Assay in pH 7.4 Buffer + 2% DMSO. Type of series: physicochemical. As to conditions: phosphate-buffered saline pH 7.4 with 2% DMSO, aqueous buffer, kinetic from dmso stock, 25° C., two hours. In a few lines:
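Compound from 20 mM DMSO stock diluted to nominal 400 μM in PBS pH 7.4 with 2% DMSO, in duplicate, shaken 2 h at 25° C., then filtered. Filtrate quantified by UV absorbance (230-550 nm) against 10-200 μM calibration curves; effective range ~2-400 μM.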

In series [5] the target is T1, cdc42 (Homo sapiens, UniProt P60953).
T1 construct: made in house
As to the kind of experiment: Cdc42 GTP Binding Domain Inhibition Assay. Conditions: read-out: Cdc42: % inh. In a few lines:
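His-tagged cdc42 or Rheb (10–30 μg/mL) bound to nickel plates, then exposed to compound (20 μM, or serial dilutions for IC50) in 1% DMSO for 3 h at room temperature, ±Sos during final hour. Cy3- or Cy5-GTP (100 nM) added for 45 min; bound labelled GTP read by fluorescence after washes.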

T1 sequence (P60953 whole entry): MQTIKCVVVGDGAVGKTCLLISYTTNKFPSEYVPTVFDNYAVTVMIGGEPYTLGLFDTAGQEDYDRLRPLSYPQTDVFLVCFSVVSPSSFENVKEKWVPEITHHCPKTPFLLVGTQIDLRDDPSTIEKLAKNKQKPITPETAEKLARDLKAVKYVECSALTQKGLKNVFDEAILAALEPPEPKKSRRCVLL

The term IC50 denotes the concentration needed to halve the response being measured. The solubility is how much of the substance goes into solution per volume. On to `Cc1c(-c2ccn(C(C)C)n2)cn2nc(-c3nccn3C)nc(Nc3ccn(C4CC4)n3)c12` [Compound 84, N-(1-Cyclopropyl-1H-pyrazol-3-yl)-6-(1-isopropyl-1H-pyrazol-3-yl)-5-methyl-2-(1-methyl-1H-imidazol-2-yl)pyrrolo[2,1-f][1,2,4]triazin-4-amine], for which the IC50 in series [1], in series [2] and in series [3] was 1 to 10 nM in each case. Also, the solubility at 2 h in series [4] lay in the range of 10 to 30 µM.
As to `COc1cccc(-c2cn3nc(-c4nccn4C)nc(N[C@@H]4CC[C@@H](OC)C4)c3c2-c2ccccc2)c1Cl.Cl` (racemic) [Compound 34, rac 6-(2-Chloro-3-methoxyphenyl)-N-((1R,3R)-3-methoxycyclopentyl)-2-(1-methyl-1H-imidazol-2-yl)-5-phenylpyrrolo[2,1-f][1,2,4]triazin-4-amine hydrochloride], in series [5], the inhibition at 20 µM was in the range of 1 to 25%.
For the compound `Cc1c(-c2ccn(C(C)C)n2)cn2nc(-c3nccn3C)nc(Nc3cc4n(n3)CCO4)c12` [Compound 91, N-(6-(1-Isopropyl-1H-pyrazol-3-yl)-5-methyl-2-(1-methyl-1H-imidazol-2-yl)pyrrolo[2,1-f][1,2,4]triazin-4-yl)-2,3-dihydropyrazolo[5,1-b]oxazol-6-amine], the IC50 in series [1], in series [2] and in series [3] was 1 to 10 nM in each case. Besides, the solubility at 2 h in series [4] is above 30 µM.
Consider `Cc1c(-c2ccn(C(C)C)n2)cn2nc(-c3nccn3C)nc(Nc3noc(C4CC4)n3)c12` [Compound 75, 5-Cyclopropyl-N-(6-(1-isopropyl-1H-pyrazol-3-yl)-5-methyl-2-(1-methyl-1H-imidazol-2-yl)pyrrolo[2,1-f][1,2,4]triazin-4-yl)-1,2,4-oxadiazol-3-amine], for which the inhibition at 20 µM in series [5] fell in the range of 1 to 25%.
For the compound `COCCO[C@H]1C[C@H](Nc2nc(-c3nccn3C)nn3cc(-c4ccn(C(C)C)n4)c(C)c23)C1` [Compound 92, 6-(1-Isopropyl-1H-pyrazol-3-yl)-N-((1r,3r)-3-(2-methoxyethoxy)cyclobutyl)-5-methyl-2-(1-methyl-1H-imidazol-2-yl)pyrrolo[2,1-f][1,2,4]triazin-4-amine], the inhibition at 20 µM in series [5] lay in the range of 1 to 25%.
